Reference: paper PMC7187627 (Antimicrobial Agents and Chemotherapy, 2019)
Entries after “also recorded” stand apart in the source; their conditions may differ.

Test: Safety and tolerability (adverse events, laboratory tests, ECG), multiple-ascending-dose phase 1 study
Format: in vivo
Description: Subjects were monitored closely with serial physical examinations, blood evaluations, and 12-lead ECGs. Subjects underwent safety laboratory testing, including measurement of blood cell counts (white blood cell [WBC] with differential, hemoglobin, and platelets), serum chemistry (sodium, potassium, chloride, calcium, bicarbonate, glucose, creatinine, blood urea nitrogen [BUN], creatine kinase [CK], aspartate aminotransferase [AST], alanine aminotransferase [ALT], alkaline phosphatase [ALP], total bilirubin, protein, albumin, amylase, and lipase) and urinalysis (protein, blood, and glucose). Study halting criteria had been established and were reviewed by an independent safety monitor (ISM) and the Safety Monitoring Committee (SMC) prior to proceeding with dosing within a cohort or to the next cohort.
The safety population included all subjects who received at least one dose of the study drug. The safety and tolerability of CRS3123 were evaluated by the sequential review of reported adverse events (AEs), changes from baseline in physical examination findings, vital sign measurements, safety laboratory tests (hematology, clinical chemistry, and urinalysis), and key 12-lead ECG findings. All safety assessments were summarized with descriptive statistics or frequency counts.
The period of observation for AE reporting began on day 1 at the time of study drug administration and continued through the final visit.
All AEs were coded to system organ class (SOC) and preferred term (PT) using the Medical Dictionary for Regulatory Activities (MedDRA), version 17.0 (https://www.meddra.org/). A treatment-emergent AE (TEAE) was defined as any AE that occurred during the study observation period (i.e., from day 1 at the time of study drug administration through the final visit). An AE with a partial onset date was classified as a TEAE if the reported partial onset date could not definitely be identified as before the date of study drug administration. Any AE with a missing onset date or missing time on day of study drug administration was classified as a TEAE.
To count the overall number of subjects who experienced each TEAE and calculation of an occurrence rate, a subject experiencing multiple occurrences of an AE was counted only once for that PT. Similarly, if a subject experienced multiple TEAEs within the same SOC, that subject was counted once to calculate an occurrence rate for the SOC. To count the number of subjects who experienced each TEAE by severity classification (mild, moderate, severe, and life-threatening) and calculate an occurrence rate, a subject experiencing multiple occurrences of an AE of the same severity was counted once in that particular severity classification for that PT. If a subject experienced multiple occurrences of an AE of differing severities, only the most severe occurrence within each PT was counted.

[1] = 200, 400, 600 mg orally twice daily for 10 days
[2] = all TEAEs, Cohort A, 200 mg Q12h (n = 8)

In the case of `O=c1cc(NCCCN[C@@H]2CCOc3c(Br)cc(Br)cc32)[nH]c2ccsc12` [CRS3123], the QTcF interval (12-lead ECG, all doses) is reported as “no QTcF interval changes; also recorded: no prolongation of the QTcF interval”, the “deaths, serious adverse events, severe TEAEs” value [1] is reported as “no serious adverse events (SAEs) or severe treatment-emergent adverse events (TEAEs) reported” and the “overall safety and tolerability” value [1] is reported as “generally safe and well tolerated”. For the same molecule, the “proportion of subjects reporting at least one treatment-related AE” value (active groups (placebo 33.3%)) was 12.5 % subjects, the “No. (%) of subjects: Alanine aminotransferase increased” value (all TEAEs, All active (n = 24)) was 3 (12.5) and the “No. (%) of subjects: Amylase increased” value (all TEAEs, All active (n = 24)) was 3 (12.5). The “No. (%) of subjects: Anxiety” value (all TEAEs, All active (n = 24)) was 1 (4.2), the “No. (%) of subjects: Arthropod bite” value (all TEAEs, All active (n = 24)) was 1 (4.2) and the “No. (%) of subjects: Aspartate aminotransferase increased” value (all TEAEs, All active (n = 24)) was 2 (8.3). For the same molecule, the “No. (%) of subjects: Blood bilirubin increased” value (all TEAEs, All active (n = 24)) was 1 (4.2), the “No. (%) of subjects: Blood calcium increased” value (all TEAEs, All active (n = 24)) was 1 (4.2) and the “No. (%) of subjects: Blood potassium increased” value (all TEAEs, All active (n = 24)) was 1 (4.2). For the same molecule, the “No. (%) of subjects: Blood pressure, diastolic, decreased” value (all TEAEs, All active (n = 24)) was 1 (4.2), the “No. (%) of subjects: Blood pressure, diastolic, increased” value (all TEAEs, All active (n = 24)) was 1 (4.2) and the “No. (%) of subjects: Blood pressure, systolic, decreased” value (all TEAEs, All active (n = 24)) was 0 (0.0). For the same molecule, the “No. (%) of subjects: Blood pressure, systolic, increased” value (all TEAEs, All active (n = 24)) was 1 (4.2), the “No. (%) of subjects: Diarrhea” value (all TEAEs, All active (n = 24)) was 2 (8.3) and the “No. (%) of subjects: Dry skin” value (all TEAEs, All active (n = 24)) was 1 (4.2). For the same molecule, the “No. (%) of subjects: Dysgeusia” value (all TEAEs, All active (n = 24)) was 1 (4.2), the “No. (%) of subjects: Ear and labyrinth disorders (system organ class)” value (all TEAEs, All active (n = 24)) was 1 (4.2) and the “No. (%) of subjects: Ear discomfort” value (all TEAEs, All active (n = 24)) was 1 (4.2). The “No. (%) of subjects: Erythema” value (all TEAEs, All active (n = 24)) was 1 (4.2), the “No. (%) of subjects: Gastrointestinal disorders (system organ class)” value (all TEAEs, All active (n = 24)) was 2 (8.3) and the “No. (%) of subjects: General disorders and administration site conditions (system organ class)” value (all TEAEs, All active (n = 24)) was 1 (4.2). The “No. (%) of subjects: Headache” value (all TEAEs, All active (n = 24)) was 2 (8.3), the “No. (%) of subjects: Hemoglobin decreased” value (all TEAEs, All active (n = 24)) was 4 (16.7) and the “No. (%) of subjects: Infections and infestations (system organ class)” value (all TEAEs, All active (n = 24)) was 1 (4.2). The “No. (%) of subjects: Infusion site thrombosis” value (all TEAEs, All active (n = 24)) was 1 (4.2), the “No. (%) of subjects: Injury, poisoning, and procedural complications (system organ class)” value (all TEAEs, All active (n = 24)) was 1 (4.2) and the “No. (%) of subjects: Investigations (system organ class)” value (all TEAEs, All active (n = 24)) was 15 (62.5). The “No. (%) of subjects: Lipase increased” value (all TEAEs, All active (n = 24)) was 5 (20.8), the “No. (%) of subjects: Musculoskeletal and connective tissue disorders (system organ class)” value (all TEAEs, All active (n = 24)) was 1 (4.2) and the “No. (%) of subjects: Myalgia” value (all TEAEs, All active (n = 24)) was 1 (4.2). For the same molecule, the “No. (%) of subjects: Nervous system disorders (system organ class)” value (all TEAEs, All active (n = 24)) was 3 (12.5), the “No. (%) of subjects: Oropharyngeal pain” value (all TEAEs, All active (n = 24)) was 1 (4.2) and the “No. (%) of subjects: Psychiatric disorders (system organ class)” value (all TEAEs, All active (n = 24)) was 1 (4.2). For the same molecule, the “No. (%) of subjects: Respiratory, thoracic, and mediastinal disorders (system organ class)” value (all TEAEs, All active (n = 24)) was 2 (8.3), the “No. (%) of subjects: Skin and subcutaneous tissue disorders (system organ class)” value (all TEAEs, All active (n = 24)) was 2 (8.3) and the “No. (%) of subjects: Subjects with TEAEs” value (all TEAEs, All active (n = 24)) was 20 (83.3). For the same molecule, the “No. (%) of subjects: Throat irritation” value (all TEAEs, All active (n = 24)) was 1 (4.2), the “No. (%) of subjects: Upper respiratory tract infection” value (all TEAEs, All active (n = 24)) was 1 (4.2) and the “No. (%) of subjects: White blood cell count increased” value (all TEAEs, All active (n = 24)) was 0 (0.0). For the same molecule, the “No. (%) of subjects: Alanine aminotransferase increased” value [2] was 1 (12.5), the “No. (%) of subjects: Amylase increased” value [2] was 1 (12.5) and the “No. (%) of subjects: Anxiety” value [2] was 1 (12.5). For the same molecule, the “No. (%) of subjects: Arthropod bite” value [2] was 1 (12.5).
